Laboratory results: patent publication US20120323012A1, “4-(AZACYCLOALKYL) -BENZENE-1,3-DIOL DERIVATIVES AS TYROSINASE INHIBITORS AND THEIR SYNTHESIS AND USE THEREOF” (GALDERMA RESEARCH & DEVELOPMENT, priority 2009, published 2012)

Legend:
tyrosinase = target: T1, tyrosinase (Mus musculus, UniProt P11344); assay: Tyrosinase activity inhibition test (B16F1 cell lysate, L-tyrosine/MBTH, 520 nm); type: biochemical, murine; conditions: lysate of B16F1 cells, 6 hours incubation at 37° C.; read-out: Tyrosine hydroxylase/Dopa oxidase IC50
T1 construct: the supernatant obtained constituted the cell lysate used as the source of tyrosinase in the enzymatic test; endogenous in cells; host or cells: B16F1 murine melanoma cells, stimulated with alpha-MSH; detergent lysate supernatant
T1 sequence (P11344 19-533): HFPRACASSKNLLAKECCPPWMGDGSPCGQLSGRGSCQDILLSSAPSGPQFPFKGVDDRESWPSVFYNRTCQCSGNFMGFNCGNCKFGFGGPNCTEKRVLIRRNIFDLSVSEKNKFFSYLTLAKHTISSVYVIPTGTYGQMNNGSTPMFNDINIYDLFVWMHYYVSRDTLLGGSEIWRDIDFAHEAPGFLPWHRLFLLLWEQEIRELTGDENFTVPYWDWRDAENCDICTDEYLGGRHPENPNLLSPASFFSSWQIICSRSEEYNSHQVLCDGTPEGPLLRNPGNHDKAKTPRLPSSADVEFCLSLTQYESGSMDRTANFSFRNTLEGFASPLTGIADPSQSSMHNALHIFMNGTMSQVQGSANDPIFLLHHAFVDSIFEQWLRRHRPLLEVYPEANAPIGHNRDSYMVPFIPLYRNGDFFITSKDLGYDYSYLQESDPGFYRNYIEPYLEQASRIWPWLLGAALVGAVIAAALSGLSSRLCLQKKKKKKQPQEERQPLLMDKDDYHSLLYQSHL
Description: The activity of the inhibitors was measured using a lysate of B16F1 cells (murine melanoma line). In the presence of L-tyrosine substrate, the tyrosinase present in these cells catalyses the hydroxylation of L-tyrosine to L-DOPA then oxidation of the L-DOPA to dopaquinone. In the presence of MBTH (3-methyl-2-benzo-thiazolinone hydrazone), dopaquinone is trapped to form a pink complex which absorbs at 520 nm.
The B16F1 cells were cultivated in DMEM medium+10% foetal calf serum+10^−9 M of αMSH for 4 days at 37° C. under 7% CO2. They were treated with trypsin, washed with PBS, counted and centrifuged. The pellet was taken up in an amount of 10^7 cells/mL in lysis buffer (sodium phosphate, 10 mM pH 6.8-Igepal 1%) and the suspension was treated with ultrasound for 10 seconds. After centrifuging for 30 minutes at 4000 rpm, the supernatant obtained constituted the cell lysate used as the source of tyrosinase in the enzymatic test.
The tests were carried out in duplicate in 384-well plates with a total volume of 50 μl. Each well contained: […]
The plate was incubated at 37° C. and a spectrographic recording was produced at 520 nm after 6 hours incubation. In order to compensate for any absorption by the products, a corrected absorbance was used (absorbance at time 6 h−absorbance at time zero). […]

[1] = Cell toxicity (3H-leucine incorporation) in the melanogenesis inhibition test; type: cell-based; conditions: human, MNT1 human melanoma cells, 24 h incubation
Description: (§1) The inhibition of melanogenesis was measured in MNT1 human melanoma cells using a protocol adapted from Reigner et al, Cell Mol Biol (1999) 45: 969-980. The test was based on the concomitant incorporation of 2 radiolabelled tracers: ^14C-thiouracil is incorporated into neosynthesized melanin and reflects melanogenesis, while ^3H-leucine is incorporated into proteins and reflects cell viability and, as a result, the toxicity of the test compounds.
(§2) The MNT1 cells were plated into 96-well plates in the presence of the test compounds and radioisotopes. After 24 h incubation at 37° C., the cells were washed and the quantity of the 2 radioisotopes was measured. The test compounds were dose-response tested in order to calculate the IC50 inhibition of melanogenesis on the basis of the ^14C incorporation which was normalized by the ^3H incorporation. A cell toxicity IC50 was also calculated on the basis of the ^3H incorporation.

[2] = system: MNT1 human melanoma cells; assay: Melanogenesis inhibition test (14C-thiouracil incorporation normalized by 3H-leucine); type: cell-based; conditions: MNT-1, 24 h incubation, 14C incorporation normalized by 3H incorporation
Description: as §1, §2

Row | IC50 (tyrosinase) [µM] | melting point [°C] | SMILES | IC50 at 24 h [1] [µM] | IC50 [2] [µM]
1 | 3 |  | CCCCc1ccc(O)cc1O [4-butylresorcinol (Rucinol), 4-butylresorcinol, reference compound] | 55 | 15
2 |  | 207 to 208 | O=S(=O)(Cc1ccccc1)N1CCC(c2ccc(O)cc2O)CC1 [Compound 1, 4-(1-phenylmethanesulphonylpiperidin-4-yl)-benzene-1,3-diol] | > 999 | 0.2
3 | 1.5 |  | Cc1ccc(S(=O)(=O)N2CCC(c3ccc(O)cc3O)CC2)cc1 [Compound 2, 4-[1-(toluene-4-sulphonyl)piperidin-4-yl]-benzene-1,3-diol] |  | 
